Paper PMC12655529, “Serendipitous Hinge Modulation Hypothetically Reprograms Caerin 1.1-LC Antibacterial Mechanism and Gram-Negative Selectivity” (Pharmaceutics, 2025)
In brackets after ≈: the same amount, converted by molar mass. Square brackets hold non-standard residues; d marks the D form. Ends that are not written are not given here. Peptide text beside a SMILES is read from it.

Key:
Gram-negative bacteria = assay: Geometric mean MIC and therapeutic index, Gram-negative; format: cell-based; conditions: geometric mean of MICs
horse red blood cells = assay: Haemolysis assay; format: cell-based; conditions: concentration inducing 10% haemolysis of horse erythrocytes; 4% (v/v) in PBS, 2 h, 37 °C, absorbance 570 nm; no haemolysis at maximum testing concentration (128 μM) recorded as 256 μM
Experimental: The peptide cytotoxicity against mammalian erythrocytes was evaluated by haemolysis assay on horse red blood cells (E&O Laboratories Ltd., Falkirk, UK). Fresh horse blood was washed three times with PBS and resuspended to a final concentration of 4% (v/v) in PBS. The diluted blood suspension was then mixed with peptide solutions at varying concentrations and incubated for 2 h at 37 °C. Red blood cell suspensions treated with 0.1% Triton X-100 and PBS were used as controls. The Triton X-100-treated suspension was the positive control (for 100% haemolysis), while the PBS-treated suspension was the blank control. Following incubation, the mixtures were centrifuged at 1000× g for 10 min to separate erythrocytes from the supernatant. The absorbance of the supernatants was detected at 570 nm. The percentage haemolysis was calculated by following the equationPercentage Haemolysis = (AbsSample − AbsBlank)/(AbsPositive − AbsBlank) × 100%

[1] = test system: Enterococcus faecalis NCTC 12697; format: cell-based; conditions: NCTC 12697
Experimental: (§1) The antimicrobial activities of the peptides were evaluated by determining their minimal inhibitory concentration (MIC) and minimal bactericidal concentration (MBC) values following reported protocols [20]. The tested microorganisms included seven Gram-negative bacterial strains (Escherichia coli ATCC 8739, E. coli ATCC-BAA 2340, E. coli NCTC 13846, Klebsiella pneumoniae ATCC 43816, K. pneumoniae ATCC BAA-2342, Pseudomonas aeruginosa ATCC 9027, Acinetobacter baumannii ATCC BAA-747), three Gram-positive bacterial strains (Staphylococcus aureus ATCC 6538, Enterococcus faecalis NCTC 12697, MRSA NCTC 12493, and the fungal strain Candida albicans ATCC 10231. For the assay, each bacterial strain was cultured overnight at 37 °C in 100 mL of medium in a flask. The cultures were then subcultured to reach the logarithmic growth phase and diluted to 5 × 10^5 CFU/mL. Peptide samples were serially diluted two-fold in microplates, with concentrations ranging from 128 μM to 1 μM. The diluted bacterial suspensions were mixed with the peptide solutions and incubated overnight at 37 °C. The MIC values were determined by measuring the absorbance of each well using a Synergy HT plate reader (Agilent, Cheshire, UK). For MBC determination, aliquots from wells showing no visible growth were inoculated onto agar plates to assess bacterial viability. Each experiment was repeated independently three times and conducted in three independent replicates.

[2] = test system: Staphylococcus aureus ATCC 6538; format: cell-based; conditions: ATCC 6538
Experimental: as §1

E. coli NCTC 13846 = format: cell-based, Escherichia coli
[3] = test system: Escherichia coli ATCC 8739; format: cell-based; conditions: ATCC 8739
Experimental: as §1

[4] = test system: Klebsiella pneumoniae ATCC 43816; format: cell-based; conditions: ATCC 43816
E. coli ATCC BAA-2340 = format: cell-based, Escherichia coli
Experimental: as §1

[5] = test system: K. pneumoniae ATCC BAA-2342; format: cell-based, Klebsiella pneumoniae
MRSA NCTC 12493 = format: cell-based, Staphylococcus aureus
Experimental: as §1

[6] = test system: Acinetobacter baumannii ATCC BAA-747; format: cell-based; conditions: ATCC BAA-747
Experimental: as §1

[7] = test system: Pseudomonas aeruginosa ATCC 9027; format: cell-based
Experimental: as §1

Gram-positive bacteria = assay: Geometric mean MIC and therapeutic index, Gram-positive; format: cell-based; conditions: geometric mean of MICs
E. coli (ATCC-BAA 2340) = format: cell-based, Escherichia coli; conditions: ATCC-BAA 2340
Experimental: The peptide sensitivity was determined in different salt- and serum-containing environments. Bacterial strains were prepared following the MIC detection protocol described previously. To evaluate peptide sensitivity under physiological conditions, various concentrations of salt ions (150 mM NaCl, 4.5 mM KCl, 2 mM CaCl2, 1 mM MgCl2, 8 µM ZnCl2, 6 µM NH4Cl, or 4 µM FeCl3) and serum (10% FBS) were prepared in McCartney bottles prior to the addition of bacterial suspensions. The subcultured bacterial suspensions were then introduced to these modified media conditions. For MIC determination, the treated bacterial suspensions were diluted and dispensed into 96-well plates containing peptide solutions at graded concentrations. This assay allowed for the detection of potential alterations in MIC values, serving as an indicator of peptide sensitivity under different physiological conditions. All experiments were independently repeated three times, each with three replicates.

Compound: GLLSVLGSLKKIVPKAVPKIAEKL-NH2 [Caerin 1.1-LC 11K.19K.PKAVP]
- GM MIC Gram-Negative (Gram-negative bacteria): 26.08 µM
- HC10 (horse red blood cells): 256 µM
- MBC, E. faecalis (NCTC 12697) [1]: >128 µM
- MIC, E. faecalis (NCTC 12697) [1]: >128 µM
- MBC, S. aureus (ATCC 6538) [2]: >128 µM
- MIC, S. aureus (ATCC 6538) [2]: >128 µM
- MBC, E. coli (NCTC 13846) (E. coli NCTC 13846): 2 µM
- MIC, E. coli (NCTC 13846) (E. coli NCTC 13846): 2 µM
- MBC, E. coli (ATCC 8739) [3]: 8 µM
- MIC, E. coli (ATCC 8739) [3]: 8 µM
- MBC, K. pneumoniae (ATCC 43816) [4]: 64 µM
- MIC, K. pneumoniae (ATCC 43816) [4]: 64 µM
- MBC, E. coli (ATCC BAA-2340) (E. coli ATCC BAA-2340): 8 µM
- MIC, E. coli (ATCC BAA-2340) (E. coli ATCC BAA-2340): 8 µM
- MBC, K. pneumoniae (ATCC BAA-2342) [5]: >128 µM
- MIC, K. pneumoniae (ATCC BAA-2342) [5]: >128 µM
- MBC, MRSA (NCTC 12493) (MRSA NCTC 12493): 64 µM
- MIC, MRSA (NCTC 12493) (MRSA NCTC 12493): 64 µM
- MBC, A. baumannii (ATCC BAA-747) [6]: 128 µM
- MIC, A. baumannii (ATCC BAA-747) [6]: 128 µM
- MBC, P. aeruginosa (ATCC 9027) [7]: 64 µM
- MIC, P. aeruginosa (ATCC 9027) [7]: 32 µM
- GM MIC Gram-Positive (Gram-positive bacteria): 161.5 µM

Compound: GLLSVLGSLKLIVPHLLPLIAEKL-NH2 [Caerin 1.1-LC PHLLP]
- GM MIC Gram-Negative (Gram-negative bacteria): 8 µM
- HC10 (horse red blood cells): 1.6 µM
- MBC, E. faecalis (NCTC 12697) [1]: 32 µM
- MIC, E. faecalis (NCTC 12697) [1]: 32 µM
- MBC, S. aureus (ATCC 6538) [2]: 4 µM
- MIC, S. aureus (ATCC 6538) [2]: 4 µM
- MBC, E. coli (NCTC 13846) (E. coli NCTC 13846): 4 µM
- MIC, E. coli (NCTC 13846) (E. coli NCTC 13846): 4 µM
- MBC, E. coli (ATCC 8739) [3]: 8 µM
- MIC, E. coli (ATCC 8739) [3]: 4 µM
- MBC, K. pneumoniae (ATCC 43816) [4]: 8 µM
- MIC, K. pneumoniae (ATCC 43816) [4]: 8 µM
- MBC, E. coli (ATCC BAA-2340) (E. coli ATCC BAA-2340): 4 µM
- MIC, E. coli (ATCC BAA-2340) (E. coli ATCC BAA-2340): 4 µM
- MBC, K. pneumoniae (ATCC BAA-2342) [5]: 16 µM
- MIC, K. pneumoniae (ATCC BAA-2342) [5]: 8 µM
- MBC, MRSA (NCTC 12493) (MRSA NCTC 12493): 4 µM
- MIC, MRSA (NCTC 12493) (MRSA NCTC 12493): 4 µM
- MBC, A. baumannii (ATCC BAA-747) [6]: 8 µM
- MIC, A. baumannii (ATCC BAA-747) [6]: 4 µM
- MBC, P. aeruginosa (ATCC 9027) [7]: 64 µM
- MIC, P. aeruginosa (ATCC 9027) [7]: 32 µM
- GM MIC Gram-Positive (Gram-positive bacteria): 6.56 µM

Compound: GLLSVLGSLKKIVPHVVPLIAEKL-NH2 [Caerin 1.1-LC 11K]
- GM MIC Gram-Negative (Gram-negative bacteria): 8.8 µM
- HC10 (horse red blood cells): 35.8 µM
- MBC, E. faecalis (NCTC 12697) [1]: 128 µM
- MIC, E. faecalis (NCTC 12697) [1]: 128 µM
- MBC, S. aureus (ATCC 6538) [2]: 32 µM
- MIC, S. aureus (ATCC 6538) [2]: 8 µM
- MBC, E. coli (NCTC 13846) (E. coli NCTC 13846): 8 µM
- MIC, E. coli (NCTC 13846) (E. coli NCTC 13846): 4 µM
- MBC, E. coli (ATCC 8739) [3]: 16 µM
- MIC, E. coli (ATCC 8739) [3]: 8 µM
- MBC, K. pneumoniae (ATCC 43816) [4]: 32 µM
- MIC, K. pneumoniae (ATCC 43816) [4]: 16 µM
- MBC, E. coli (ATCC BAA-2340) (E. coli ATCC BAA-2340): 8 µM
- MIC, E. coli (ATCC BAA-2340) (E. coli ATCC BAA-2340): 2 µM
- MBC, K. pneumoniae (ATCC BAA-2342) [5]: 16 µM
- MIC, K. pneumoniae (ATCC BAA-2342) [5]: 8 µM
- MBC, MRSA (NCTC 12493) (MRSA NCTC 12493): 8 µM
- MIC, MRSA (NCTC 12493) (MRSA NCTC 12493): 8 µM
- MBC, A. baumannii (ATCC BAA-747) [6]: 32 µM
- MIC, A. baumannii (ATCC BAA-747) [6]: 32 µM
- MBC, P. aeruginosa (ATCC 9027) [7]: 32 µM
- MIC, P. aeruginosa (ATCC 9027) [7]: 16 µM
- GM MIC Gram-Positive (Gram-positive bacteria): 20.1 µM

Compound: CC[C@H](C)[C@H](NC(=O)[C@H](CCCCN)NC(=O)[C@@H]1CCCN1C(=O)[C@@H](CC(C)C)NC(=O)[C@H](C)NC(=O)[C@H](CCCCN)NC(=O)[C@@H]1CCCN1C(=O)[C@@H](NC(=O)[C@@H](NC(=O)[C@H](CC(C)C)NC(=O)[C@H](CCCCN)NC(=O)[C@H](CC(C)C)NC(=O)[C@H](CO)NC(=O)CNC(=O)[C@H](CC(C)C)NC(=O)[C@@H](NC(=O)[C@H](CO)NC(=O)[C@H](CC(C)C)NC(=O)[C@H](CC(C)C)NC(=O)CN)C(C)C)[C@@H](C)CC)C(C)C)C(=O)N[C@@H](C)C(=O)N[C@@H](CCC(=O)O)C(=O)N[C@@H](CCCCN)C(=O)N[C@@H](CC(C)C)C(N)=O [Caerin 1.1-LC PKAL(D)P] (H-GLLSVLGSLKLIVPKA[dL]PKIAEKL-NH2; N-terminus assumed)
- GM MIC Gram-Negative (Gram-negative bacteria): 4.87 µM
- HC10 (horse red blood cells): 43.4 µM
- MBC, E. faecalis (NCTC 12697) [1]: >128 µM
- MIC, E. faecalis (NCTC 12697) [1]: >128 µM
- MBC, S. aureus (ATCC 6538) [2]: 32 µM (≈ 80 µg/mL)
- MIC, S. aureus (ATCC 6538) [2]: 32 µM (≈ 80 µg/mL)
- MBC, E. coli (NCTC 13846) (E. coli NCTC 13846): 8 µM (≈ 20 µg/mL)
- MIC, E. coli (NCTC 13846) (E. coli NCTC 13846): 8 µM (≈ 20 µg/mL)
- MBC, E. coli (ATCC 8739) [3]: 2 µM (≈ 5 µg/mL)
- MIC, E. coli (ATCC 8739) [3]: 2 µM (≈ 5 µg/mL)
- MBC, K. pneumoniae (ATCC 43816) [4]: 4 µM (≈ 10 µg/mL)
- MIC, K. pneumoniae (ATCC 43816) [4]: 4 µM (≈ 10 µg/mL)
- MBC, E. coli (ATCC BAA-2340) (E. coli ATCC BAA-2340): 2 µM (≈ 5 µg/mL)
- MIC, E. coli (ATCC BAA-2340) (E. coli ATCC BAA-2340): 2 µM (≈ 5 µg/mL)
- MIC, Ca^2+ (E. coli (ATCC-BAA 2340)): 128 µM (≈ 320 µg/mL)
- MIC, Control (E. coli (ATCC-BAA 2340)): 2 µM (≈ 5 µg/mL)
- MIC, FBS (E. coli (ATCC-BAA 2340)): 16 µM (≈ 40 µg/mL)
- MIC, Fe^3+ (E. coli (ATCC-BAA 2340)): 2 µM (≈ 5 µg/mL)
- MIC, K^+ (E. coli (ATCC-BAA 2340)): 2 µM (≈ 5 µg/mL)
- MIC, Mg^2+ (E. coli (ATCC-BAA 2340)): 16 µM (≈ 40 µg/mL)
- MIC, NH4^+ (E. coli (ATCC-BAA 2340)): 2 µM (≈ 5 µg/mL)
- MIC, Na^+ (E. coli (ATCC-BAA 2340)): 4 µM (≈ 10 µg/mL)
- MBC, K. pneumoniae (ATCC BAA-2342) [5]: 4 µM (≈ 10 µg/mL)
- MIC, K. pneumoniae (ATCC BAA-2342) [5]: 4 µM (≈ 10 µg/mL)
- MBC, MRSA (NCTC 12493) (MRSA NCTC 12493): 8 µM (≈ 20 µg/mL)
- MIC, MRSA (NCTC 12493) (MRSA NCTC 12493): 4 µM (≈ 10 µg/mL)
- MBC, A. baumannii (ATCC BAA-747) [6]: 32 µM (≈ 80 µg/mL)
- MIC, A. baumannii (ATCC BAA-747) [6]: 32 µM (≈ 80 µg/mL)
- MBC, P. aeruginosa (ATCC 9027) [7]: 4/4 µM
- MIC, P. aeruginosa (ATCC 9027) [7]: 4/4 µM
- GM MIC Gram-Positive (Gram-positive bacteria): 64 µM
